Measurements published in patent US20210221832A1, “SUBSTITUTED PYRIDOINDOLES FOR THE TREATMENT AND PROPHYLAXIS OF BACTERIAL INFECTION” (Hoffmann-La Roche Inc., priority 2018, published 2021).
pIC50: −log10 of the molar value. ≈ marks a conversion by molar mass, not a printed value.

Tests used:
[1] = Plasma stability assay in human plasma; type: in vitro ADME; conditions: 10 μM prodrug, 37° C., prodrug remaining at 30 min compared to 0 min
Procedure: (§1) The degradation of prodrug and formation of active drug of present invention were monitored by current plasma stability assay. The assay is conducted in human plasma (purchased from Bioreclamation, Lot No. BRH1380385) or mouse plasma (prepared in-house using CD-1 mouse purchased from Vital River). Plasma is spiked with the test prodrug (10 μM final concentration) dissolved in DMSO (or water) and incubated at 37° C. Aliquots are removed at 0, 5, 15 and 30 minutes of incubation time, quenched with appropriate volume of internal standard solution (I.S., 0.2 μM of tolbutamide, prepared in ACN and water (1:1, v/v)), according to the mass spectrometer intensity of both analytes. Samples are centrifuged, the supernatant are removed and analyzed by LC-MS/MS. The degradation of prodrug was illustrated by calculation of percent remaining of prodrug at 30 min compared to that at 0 min (Table 2).

[2] = Plasma stability assay in mouse plasma; type: in vitro ADME, CD-1 mouse; conditions: 10 μM prodrug, 37° C., prodrug remaining at 30 min compared to 0 min
Procedure: as §1

[3] = Lyophilisation Solubility Assay (LYSA); type: physicochemical; conditions: aqueous buffer, thermodynamic from solid; 0.05 M phosphate buffer, pH 6.5
Procedure: The solubility of compounds of present invention was assessed by LYSA assay. Samples were prepared in duplicate from 10 mM DMSO stock solutions (20 μL) diluted in 30 μL pure DMSO. After evaporation of DMSO with a centrifugal vacuum evaporator, the residue was dissolved in 0.05 M phosphate buffer (150 μL, pH 6.5), which was stirred for one hour and shook for two hours. After one night, the solution was filtered using a microtiter filter plate. Then the filtrate and its 1/10 dilution were analyzed by HPLC-UV. In addition, a four-point calibration curve was prepared from the 10 mM stock solutions and used for the solubility determination of the compounds.

[4] = test system: A. baumannii (ATCC17978); experiment: 50% Growth Inhibitory Concentration (IC50) Determination Assay, A. baumannii; type: cell-based; conditions: Acinetobacter baumannii, growth inhibition, Iso-Sensitest broth, OD 600 nm over 16 h
Procedure: (§2) The in vitro antimicrobial activity of the compounds against S. aureus (ATCC29213), K. pneumoniae (ATCC10031), and A. baumannii (ATCC17978), was determined according to the following procedure: The assay used a 10-points Iso-Sensitest broth medium to measure quantitatively the in vitro activity of the compounds against S. aureus ATCC29213, K. pneumoniae ATCC 10031, and A. baumannii ATCC 17978. Stock compounds in DMSO were serially two-fold diluted (range from 50 to 0.097 μM final concentration) in 384 wells microtiter plates and inoculated with 49 μL the bacterial suspension in Iso-Sensitest broth medium to have a final cell concentration of 5×10^5 CFU/mL in a final volume/well of 50 μL/well. Microtiter plates were incubated at 35±2° C. Bacterial cell growth was determined with the measurement of optical density at λ=600 nm each 20 minutes over a time course of 16 h. Growth inhibition was calculated during the logarithmic growth of the bacterial cells with determination of the concentration inhibiting 50% (IC50) of the growth. The parent compounds of the present invention were tested for their concentration inhibiting 50% (IC50). The data of IC50 over S. aureus (ATCC29213), K. pneumoniae (ATCC10031), and A. baumannii (ATCC17978) are illustrated in Table 6.

[5] = test system: S. aureus (ATCC29213); experiment: 50% Growth Inhibitory Concentration (IC50) Determination Assay, S. aureus; type: cell-based; conditions: Staphylococcus aureus, growth inhibition, Iso-Sensitest broth, OD 600 nm over 16 h
Procedure: as §2

[6] = test system: K. pneumoniae (ATCC10031); experiment: 50% Growth Inhibitory Concentration (IC50) Determination Assay, K. pneumoniae; type: cell-based; conditions: Klebsiella pneumoniae, growth inhibition, Iso-Sensitest broth, OD 600 nm over 16 h
Procedure: as §2

Row | Structure (SMILES) | Percent Remaining (%) H [1] | Percent Remaining (%) M [2] | solubility [3] | pIC50 [4] | pIC50 [5] | pIC50 [6]
1 | CN1C[C@@H]2CCN(c3c(-c4cnc5c(c4)c(=O)c(C(=O)O)cn5C)cnc4[nH]c5c(N(C)C(=O)OCOC(=O)/C=C/C(=O)O)cc(F)c(C#N)c5c34)[C@@H]2C1 [Example 1.02, 6-[5-Cyano-6-fluoro-8-[methyl-[[(E)-3-carboxyprop-2-enoyl]oxymethoxycarbonyl]amino]-4-[(3aS,6aS)-5-methyl-2,3,3a,4,6,6a-hexahydropyrrolo[2,3-c]pyrrol-1-yl]-9H-pyrido[2,3-b]indol-3-yl]-1-methyl-4-oxo-1,8-naphthyridine-3-carboxylic acid] | 88.2% | 70.2% | > 895 µg/mL |  |  | 
2 | CNc1cc(F)c(C#N)c2c1[nH]c1ncc(-c3cnc4c(c3)c(=O)c(C(=O)O)cn4C)c(N3CC[C@H]4CN(C)C[C@H]43)c12 [Example 1.03D, 6-[5-cyano-6-fluoro-8-(methylamino)-4-[(3aS,6aS)-5-methyl-2,3,3a,4,6,6a-hexahydropyrrolo[2,3-c]pyrrol-1-yl]-9H-pyrido[2,3-b]indol-3-yl]-1-methyl-4-oxo-1,8-naphthyridine-3-carboxylic acid] |  |  | 194 µg/mL (≈ 342 µM) | 7.35 | > 7.01 | > 7.01
3 | CNc1cc(F)c(C#N)c2c3c(N4CC[C@H]5CN(C)C[C@H]54)c(-c4cnc5c(c4)c(=O)c(C(=O)O)cn5C)cn(COP(=O)(O)O)c-3nc12 [Example 1.04, 6-[5-Cyano-6-fluoro-8-(methylamino)-1-(phosphonooxymethyl)-4-[(3aS,6aS)-5-methyl-2,3,3a,4,6,6a-hexahydropyrrolo[2,3-c]pyrrol-1-yl]pyrido[2,3-b]indol-3-yl]-1-methyl-4-oxo-1,8-naphthyridine-3-carboxylic acid] | 95.9% | 79.1% | > 950 µg/mL |  |  | 
4 | CNc1cc(F)c(C#N)c2c1[nH]c1ncc(-c3cnc4c(c3)c(=O)c(C(=O)OCCOC(=O)[C@@H](N)C(C)C)cn4C)c(N3CC[C@H]4CN(C)C[C@H]43)c12 [Example 1.08, 2-[(2S)-2-Amino-3-methyl-butanoyl]oxyethyl 6-[5-cyano-6-fluoro-8-(methylamino)-4-[(3aS,6aS)-5-methyl-2,3,3a,4,6,6a-hexahydropyrrolo[2,3-c]pyrrol-1-yl]-9H-pyrido[2,3-b]indol-3-yl]-1-methyl-4-oxo-1,8-naphthyridine-3-carboxylate] | 22.3% | 1.3% | 480 µg/mL (≈ 676 µM) |  |  | 
5 | CN1C[C@H]2CCN(c3c(-c4cnc5c(c4)c(=O)c(C(=O)O)cn5C)cnc4[nH]c5c(N(C)C(=O)OCOC(=O)/C=C/C(=O)O)cc(F)c(F)c5c34)[C@H]2C1 [Example 1.21, 6-[5,6-Difluoro-8-[methyl-[[(E)-3-carboxyprop-2-enoyl]oxymethoxycarbonyl]amino]-4-[(3aR,6aR)-5-methyl-2,3,3a,4,6,6a-hexahydropyrrolo[2,3-c]pyrrol-1-yl]-9H-pyrido[2,3-b]indol-3-yl]-1-methyl-4-oxo-1,8-naphthyridine-3-carboxylic acid] | 88.7% | 56.0% |  |  |  | 
6 | CNc1cc(F)c(F)c2c1[nH]c1ncc(-c3cnc4c(c3)c(=O)c(C(=O)O)cn4C)c(N3CC[C@H]4CN(C)C[C@H]43)c12 [Example 1.26E, 6-[5,6-difluoro-8-(methylamino)-4-[(3aS,6aS)-5-methyl-2,3,3a,4,6,6a-hexahydropyrrolo[2,3-c]pyrrol-1-yl]-9H-pyrido[2,3-b]indol-3-yl]-1-methyl-4-oxo-1,8-naphthyridine-3-carboxylic acid] |  |  | 137 µg/mL (≈ 245 µM) | 7.41 | > 7.01 | > 7.01
7 | CNc1cc(F)c(F)c2c1[nH]c1ncc(-c3ccc4ccc(C(=O)O)c(=O)n4c3)c(N3CC[C@H]4CN(C)C[C@H]43)c12 [Example 1.34D, 7-[5,6-difluoro-8-(methylamino)-4-[(3aS,6aS)-5-methyl-2,3,3a,4,6,6a-hexahydropyrrolo[2,3-c]pyrrol-1-yl]-9H-pyrido[2,3-b]indol-3-yl]-4-oxo-quinolizine-3-carboxylic acid] |  |  | 54 µg/mL (≈ 99.2 µM) | > 7.01 | > 7.01 | > 7.01
8 | CNc1cc(F)c(F)c2c1[nH]c1ncc(-c3ccc4ccc(C(=O)OC(C)OC(=O)OC(C)C)c(=O)n4c3)c(N3CC[C@H]4CN(C)C[C@H]43)c12 (stereo partly drawn) [Example 1.39, 1-Isopropoxycarbonyloxyethyl 7-[5,6-difluoro-8-(methylamino)-4-[(3aS,6aS)-5-methyl-2,3,3a,4,6,6a-hexahydropyrrolo[2,3-c]pyrrol-1-yl]-9H-pyrido[2,3-b]indol-3-yl]-4-oxo-quinolizine-3-carboxylate] | 98.4% | 0.1% |  |  |  | 
